In one series the test system is Human alphaherpesvirus 1. The series can be described thus: Antiviral activity against Herpes simplex virus 1 infected in chick embryo fibroblasts by plaque reduction assay. The format is functional, organism-based. In general terms: Plaques are areas of infected cells; plaque reduction assays count them against a control.
In series [1] the test system is Streptococcus pyogenes. In words: Antibacterial activity against Streptococcus pyogenes CN10 up to 200 ug/ml. Type of series: functional, organism-based.
For series [2], the system named is Staphylococcus aureus. The series can be described thus: Antibacterial activity against Staphylococcus aureus Oxford up to 200 ug/ml. Type of series: functional, organism-based.
The subject of series [3] is Staphylococcus aureus. The series can be described thus: Antibacterial activity against Staphylococcus aureus Russel up to 200 ug/ml. Type of series: functional, organism-based.
Series [4] relates to Coxsackievirus B1. The series can be described thus: Antiviral activity against Coxsackievirus B1 infected in human HeLa cells up to 100 ug/ml by agar diffusion assay. The format is functional, organism-based. On the technique in general: Agar diffusion results depend on both activity and mobility in agar.
The subject of series [5] is Staphylococcus aureus. In words: Antibacterial activity against Staphylococcus aureus 1517 up to 200 ug/ml. Type of series: functional, organism-based.
A short description of series [6]: Cytotoxicity against BHK cells up to 100 ug/ml by carbol fuschin assay. As to conditions: hamster. The format is cell-based, Mesocricetus auratus.
The subject of series [7] is Bacillus subtilis. In words: Antibacterial activity against Bacillus subtilis up to 200 ug/ml. The format is functional, organism-based.
In series [8] the test system is Influenza A virus. In words: Antiviral activity against influenza A virus NWS/H0N1 infected in BHK cells up to 100 ug/ml by agar diffusion assay. The format is functional, organism-based.
A further series relates to HeLa. The series can be described thus: Cytotoxicity against human HeLa cells up to 100 ug/ml. Type of series: cell-based.
Series [9] deals with Enterococcus faecalis. The series can be described thus: Antibacterial activity against Streptococcus faecalis I up to 200 ug/ml. Type of series: functional, organism-based.
For series [10], the system named is Influenza A virus. The series can be described thus: Antiviral activity against influenza A virus NWS/H0N1 infected in BHK cells by agar diffusion assay. Type of series: functional.
Series [11] has as its system Staphylococcus aureus. The series can be described thus: Antibacterial activity against Staphylococcus aureus Russel. The format is functional.
For series [12], the system named is Enterococcus faecalis. The series can be described thus: Antibacterial activity against Streptococcus faecalis I. Type of series: functional.
Series [13] has as its system Influenza A virus. The series can be described thus: Antiviral activity against influenza A virus NWS/H0N1 infected in BHK cells at 1 mg/ml by agar diffusion assay. The format is functional. The following applies: read-out: IZ.
The nature of series [14]: Cytotoxicity against BHK cells. The following applies: hamster. The format is cell-based, Mesocricetus auratus.
Series [15] concerns Streptococcus pyogenes. The series can be described thus: Antibacterial activity against Streptococcus pyogenes CN10. Type of series: functional.
Series [16] relates to Bacillus subtilis. In words: Antibacterial activity against Bacillus subtilis. Type of series: functional.
In series [17] the test system is Staphylococcus aureus. In words: Antibacterial activity against Staphylococcus aureus 1517. The format is functional.
In series [18] the test system is Coxsackievirus B1. In words: Antiviral activity against Coxsackievirus B1 infected in human HeLa cells at 1 mg/ml by agar diffusion assay. As to conditions: Enterovirus B; read-out: IZ. The format is functional.
Series [19] relates to Staphylococcus aureus. In words: Antibacterial activity against Staphylococcus aureus Oxford. The format is functional.

This note sets out measurements from ChEMBL document CHEMBL3244280, “Thiazolinone analogues of indolmycin with antiviral and antibacterial activity” (J Med Chem, 1978).

Molecules are shown by their SMILES. ≈ marks a conversion by molar mass, not a printed value. Calls of active or inactive are those of the source.

Take `CNC1=NC(=O)[C@H]([C@H](C)c2c[nH]c3ccccc23)S1`: in the series on Human alphaherpesvirus 1, the outcome was inactive.

On to `C/N=C1/SC(Cc2c[nH]c3ccccc23)C(=O)N1C` (racemic), for which the outcome in the series on Human alphaherpesvirus 1, in the series on Streptococcus pyogenes [1], in the series with Staphylococcus aureus [2], in the series with Staphylococcus aureus [3], in the series with Coxsackievirus B1 [4] and with Staphylococcus aureus [5] was inactive. Also, the result in the series with Bacillus subtilis [7], with Influenza A virus [8] and in the series with Enterococcus faecalis [9] was inactive. For the same compound, the Activity entry (in [6]; in the series on HeLa) was “Non-toxic” each time.

Take `C[C@H](c1c[nH]c2ccccc12)[C@@H]1SC(N)=NC1=O`: the result in the series with Human alphaherpesvirus 1 was inactive. The PDD50 with Influenza A virus [10] is 50 µg/mL. Besides, the MIC (commonly the smallest concentration in the dilution series that meets the test's criterion for growth inhibition) amounted to 20 µg/mL (≈ 77.1 µM) in the series on Staphylococcus aureus [11]; 20 µg/mL (≈ 77.1 µM) against Enterococcus faecalis [12]; 200 µg/mL (≈ 771 µM) against Streptococcus pyogenes [15]; 200 µg/mL (≈ 771 µM) against Bacillus subtilis [16]; 20 µg/mL (≈ 77.1 µM) with Staphylococcus aureus [17]. Also, the zone of inhibition at 1000 µg/mL with Influenza A virus [13] and in the series on Coxsackievirus B1 [18] was 0 mm throughout. In addition, the MCC in [14] is 100 µg/mL.

For `C[C@H](c1c[nH]c2ccccc12)[C@@H]1SC(NCCN(C)C)=NC1=O.Cl` (racemic), the outcome in the series on Human alphaherpesvirus 1, in the series with Streptococcus pyogenes [1], in the series on Staphylococcus aureus [2], with Staphylococcus aureus [3], in the series on Coxsackievirus B1 [4] and in the series on Staphylococcus aureus [5] was inactive. Besides, the result in the series on Bacillus subtilis [7], in the series with Influenza A virus [8] and in the series on Enterococcus faecalis [9] was inactive. Besides, the Activity entry (in series [6]; in the series on HeLa) was “Non-toxic” in each case.

With `NC1=NC(=O)C(Cc2c[nH]c3ccccc23)S1` (racemic), the outcome in the series with Human alphaherpesvirus 1 was inactive. The MIC against Staphylococcus aureus [11] was 200 µg/mL (≈ 815 µM); in the series on Enterococcus faecalis [12] it was 200 µg/mL (≈ 815 µM); in the series on Staphylococcus aureus [19] it was 200 µg/mL (≈ 815 µM); against Streptococcus pyogenes [15], more than 200 µg/mL; against Bacillus subtilis [16] it was more than 200 µg/mL; against Staphylococcus aureus [17], 200 µg/mL (≈ 815 µM). Moreover, the zone of inhibition at 1000 µg/mL with Influenza A virus [13] and with Coxsackievirus B1 [18] was 0 mm in each case.

For the compound `CCNC1=NC(=O)C(Cc2c[nH]c3ccccc23)S1` (racemic), the outcome in the series with Human alphaherpesvirus 1, in the series with Streptococcus pyogenes [1], with Staphylococcus aureus [2], in the series with Staphylococcus aureus [3], with Coxsackievirus B1 [4] and in the series on Staphylococcus aureus [5] was inactive. Further, the outcome in the series on Bacillus subtilis [7], in the series on Influenza A virus [8] and with Enterococcus faecalis [9] was inactive. The Activity result (in series [6]; in the series on HeLa) was “Non-toxic” throughout.

As for `CNC1=NC(=O)C(Cc2cn(C)c3ccccc23)S1` (racemic), the outcome in the series on Human alphaherpesvirus 1, in the series with Streptococcus pyogenes [1], in the series with Staphylococcus aureus [2], in the series with Staphylococcus aureus [3], in the series on Coxsackievirus B1 [4] and in the series on Staphylococcus aureus [5] was inactive. The result in the series on Bacillus subtilis [7], in the series with Influenza A virus [8] and with Enterococcus faecalis [9] was inactive. Also, the Activity entry (in series [6]; in the series with HeLa) was “Non-toxic” throughout.

Regarding `CNC1=NC(=O)[C@H]([C@H](C)c2c[nH]c3ccccc23)S1` (racemic), in the series with Human alphaherpesvirus 1, the outcome was inactive.

In the case of `O=C1N/C(=N\c2ccccc2)SC1Cc1c[nH]c2ccccc12` (racemic), the result in the series with Human alphaherpesvirus 1, in the series with Streptococcus pyogenes [1], in the series on Staphylococcus aureus [2], in the series on Staphylococcus aureus [3], in the series with Coxsackievirus B1 [4] and in the series on Staphylococcus aureus [5] was inactive. Also, the outcome in the series on Bacillus subtilis [7], in the series with Influenza A virus [8] and in the series on Enterococcus faecalis [9] was inactive. Also, the Activity result (in series [6]; with HeLa) was “Non-toxic” in each case.

With `CN(C)C1=NC(=O)C(Cc2c[nH]c3ccccc23)S1` (racemic), the result in the series on Human alphaherpesvirus 1, in the series on Streptococcus pyogenes [1], in the series with Staphylococcus aureus [2], in the series on Staphylococcus aureus [3], in the series with Coxsackievirus B1 [4] and with Staphylococcus aureus [5] was inactive. Also, the result with Bacillus subtilis [7], in the series with Influenza A virus [8] and in the series with Enterococcus faecalis [9] was inactive. Further, the Activity entry (in series [6]; with HeLa) was “Non-toxic” each time.

Turning to `CCN1C(=N)SC(Cc2c[nH]c3ccccc23)C1=O` (racemic), the outcome with Human alphaherpesvirus 1, in the series on Streptococcus pyogenes [1], in the series with Staphylococcus aureus [2], in the series on Staphylococcus aureus [3], with Coxsackievirus B1 [4] and with Staphylococcus aureus [5] was inactive. In addition, the outcome with Bacillus subtilis [7], with Influenza A virus [8] and in the series with Enterococcus faecalis [9] was inactive. For the same compound, the Activity entry (in [6]; in the series on HeLa) was “Non-toxic” throughout.

For the compound `CN1C(=N)SC(Cc2c[nH]c3ccccc23)C1=O` (racemic), the outcome in the series on Human alphaherpesvirus 1, with Streptococcus pyogenes [1], in the series with Staphylococcus aureus [2], in the series with Staphylococcus aureus [3], in the series on Coxsackievirus B1 [4] and in the series with Staphylococcus aureus [5] was inactive. For the same compound, the outcome with Bacillus subtilis [7], in the series on Influenza A virus [8] and in the series with Enterococcus faecalis [9] was inactive. The Activity entry (in series [6]; in the series with HeLa) was “Non-toxic” in each case.

Take `O=C1N=C(NCCO)SC1Cc1c[nH]c2ccccc12` (racemic): the outcome in the series with Human alphaherpesvirus 1, in the series with Streptococcus pyogenes [1], with Staphylococcus aureus [2], in the series with Staphylococcus aureus [3], in the series with Coxsackievirus B1 [4] and with Staphylococcus aureus [5] was inactive. The outcome in the series with Bacillus subtilis [7], with Influenza A virus [8] and in the series on Enterococcus faecalis [9] was inactive. Besides, the Activity entry (in [6]; with HeLa) was “Non-toxic” in each case.

For the compound `CNC1=NC(=O)[C@@H]([C@@H](C)c2c[nH]c3ccccc23)S1`, the result with Human alphaherpesvirus 1, in the series on Streptococcus pyogenes [1], with Staphylococcus aureus [2], with Staphylococcus aureus [3], in the series on Coxsackievirus B1 [4] and in the series on Staphylococcus aureus [5] was inactive. Further, the outcome in the series on Bacillus subtilis [7], with Influenza A virus [8] and with Enterococcus faecalis [9] was inactive. Also, the Activity entry (in series [6]; with HeLa) was “Non-toxic” throughout.

Consider `CC1(C)S[C@@H]2[C@H](NC(=O)[C@H](N)c3ccccc3)C(=O)N2[C@H]1C(=O)O` [AMPICILLIN], for which the MIC turned out to be 2 µg/mL (≈ 5.72 µM) against Staphylococcus aureus [11]; 2 µg/mL (≈ 5.72 µM) against Enterococcus faecalis [12]; 2 µg/mL (≈ 5.72 µM) against Staphylococcus aureus [19]; 2 µg/mL (≈ 5.72 µM) in the series with Streptococcus pyogenes [15]; 2 µg/mL (≈ 5.72 µM) with Bacillus subtilis [16]; 20 µg/mL (≈ 57.2 µM) against Staphylococcus aureus [17].

Consider `O=C1NC(=S)SC1Cc1c[nH]c2ccccc12` (racemic), for which the result in the series on Human alphaherpesvirus 1, with Streptococcus pyogenes [1], in the series with Staphylococcus aureus [2], with Staphylococcus aureus [3], with Coxsackievirus B1 [4] and in the series on Staphylococcus aureus [5] was inactive. For the same compound, the outcome in the series on Bacillus subtilis [7], in the series on Influenza A virus [8] and in the series with Enterococcus faecalis [9] was inactive. The Activity result (in series [6]; in the series on HeLa) was “Non-toxic” throughout.

For `C[C@H](c1c[nH]c2ccccc12)[C@@H]1SC(N(C)C)=NC1=O` (racemic), the outcome with Human alphaherpesvirus 1 was inactive. Besides, the MIC with Staphylococcus aureus [11] was 20 µg/mL (≈ 69.6 µM); with Enterococcus faecalis [12], more than 200 µg/mL; with Staphylococcus aureus [19], 20 µg/mL (≈ 69.6 µM); in the series with Streptococcus pyogenes [15], more than 200 µg/mL; in the series with Bacillus subtilis [16] it was more than 200 µg/mL; in the series on Staphylococcus aureus [17] it was 20 µg/mL (≈ 69.6 µM). For the same compound, the zone of inhibition at 1000 µg/mL in the series with Influenza A virus [13] and in the series on Coxsackievirus B1 [18] was 0 mm in each case.

With `O=C1N=C(NCc2ccccc2)SC1Cc1c[nH]c2ccccc12` (racemic), the outcome in the series on Human alphaherpesvirus 1, in the series with Streptococcus pyogenes [1], in the series on Staphylococcus aureus [2], with Staphylococcus aureus [3], in the series on Coxsackievirus B1 [4] and with Staphylococcus aureus [5] was inactive. Besides, the result in the series on Bacillus subtilis [7], in the series on Influenza A virus [8] and with Enterococcus faecalis [9] was inactive. Also, the Activity result (in [6]; in the series on HeLa) was “Non-toxic” throughout.
